A word on the half-life: it is how long it takes for the measured level to halve.

The record followed here is patent publication US8809010B2, “Method for prophylactic treatment of alzheimer's disease using inhibitors of glutaminyl cyclase and glutamate cyclases” (Probiodrug AG, priority 2003, dated 2014).

One series concerns LNZ-308 cells. Kind of series: Aβ in conditioned medium after transient APP expression, BACE I inhibition, ELISA. Type of series: cell-based. Here is the method:
(§1) The constructs are depicted in FIG. 33. The APP-encoding plasmids differed with respect to the sequence surrounding the β-secretase cleavage site, i.e. either carried the swedish mutation (KM595/596NL) or the wild-type sequence (K595M596) at the β-secretase-cleavage site. Furthermore, the constructs encoded either the London (V642I) or wild-type sequence (V642) near the γ-secretase cleavage site. The swedish mutation leads to an elevated generation of Aβ due to enhanced cleavage by the β-secretase BACE I. The London mutation mediates enhanced formation of Aβ42 peptides compared to the wild-type sequence without affecting the total Aβ generation.
(§2) In order to substantiate the role of these newly discovered enzyme activity generating the molecular precursor of pGlu-Aβ peptides, inhibitors of the known β-secretase BACE I were employed in experiments based on transient expression of the plasmid constructs outlined in FIG. 33. Similar to the observations with the APP(N3Q) constructs, N-terminally truncated peptides were generated mainly after APP-WT and APP-London expression.
(§3) Aβ(x-40), Aβ(x-42) and Aβ (N3pE-42)-specific sandwich ELISAs (all from IBL, Hamburg) were performed according to the manufacturer's manual. […] After applying the stop solution the absorption at 450 nm was measured using a microplate reader (TECAN Sunrise). […]
(In general: ELISA stands for enzyme-linked immunosorbent assay.)

Another series has as its system HEK293 cells. The description is as above. Type of series: cell-based, human. Here is the method:
as §1, §2, §3

The subject of series [1] is cuffed femoral artery: vascular remodeling, monocyte adhesion, MCP-1 expression. Kind of series: Cuff-induced accelerated atherosclerosis in ApoE3*Leiden mice. Details: reduction of percentage of lumen stenosis / reduction of the area of neointima formation / reduction of total adhering cells / reduction of adhering monocytes / reduction of MCP-1 expression, absolute area, media / reduction of MCP-1 expression, absolute area, intima: concentration or dose not given beside the values. It counts as in vivo. How it is done:
After 3 weeks the mice underwent surgical non-constricting cuff placement (day 0) and were divided into 2 groups, matched for plasma cholesterol levels.
At the time of surgery, mice were anaesthetized with an intraperitoneal injection of 5 mg/kg Dormicum, 0.5 mg/kg Domitor and 0.05 mg/kg Fentanyl. This cocktail gives complete narcosis for at least one hour and can be quickly antagonized with Antisedan 2.5 mg/kg and Anexate 0.5 mg/kg.
A longitudinal 1 cm incision is made in the internal side of the leg and the femoral artery is dissected for 3 mm length from the femoral nerve and femoral vein. The femoral artery is looped with a ligature and a non-constrictive fine bore polyethylene tubing (0.4 mm inner diameter, 0.8 mm outer diameter, length 2 mm) is longitudinally opened and sleeved loosely around the femoral artery. The cuff is closed up with two ligature knots. The skin is closed with a continued suture.
For histological analysis, animals were sacrificed either 2 days or 14 days after cuff placement. […] After perfusion, a longitudinal 2 cm incision was made in the internal side of the leg and the cuffed femoral artery was harvested as a whole and fixed overnight in 4% formaldehyde and processed to paraffin.
Adhesion of leukocytes in general and monocytes/macrophages in particular to the activated endothelium of the cuffed vessel wall was analyzed by microscopic analysis of cross sections harvested 2 days after cuff placement. The number of adhering and/or infiltrating leukocytes in general, identified as adhering cells at the luminal side of the vessel segment, and monocytes/macrophages in particular was counted and illustrated as cells per cross-section or as defined areas per cross section. Monocytes were identified by specific immunohistochemical staining by AIA31240 antibody, recognizing monocytes and macrophages.
Vessel wall remodeling accelerated atherosclerosis and neoinitima formation were analyzed morphometrically in all mice sacrificed after 14 days. A full comparison between the two groups was performed for all relevant vessel wall parameters (neointima formation, vascular circumference (i.e. outward remodelling), media thickness, lumen stenosis). Accelerated atherosclerosis was analyzed by immunohistochemical staining for macrophages and foam cells in the lesion area by AIA31240 antibody.

Series [2] deals with pGlu-Aβ(3-40) formation in rat cortex. Kind of series: Rat model, intracortical injection of Aβ peptides (traumatic brain injury), ELISA and immunohistochemistry. It counts as in vivo.
Method: Aβ(x-40), Aβ(x-42) and Aβ (N3pE-42)-specific sandwich ELISAs (all from IBL, Hamburg) were performed according to the manufacturer's manual. Briefly, samples were diluted according to the expected concentration in the brain parts and applied onto a plate precoated with an antibody specific for the respective C-terminus. The samples were incubated overnight. The next day, the plate was washed 8 times and incubated for 1 h with a horse radish peroxidase conjugated detection antibody afterwards. Following this incubation the plate was washed 10 times and then developed with chromogen (TMB) for 30 min. After applying the stop solution the absorption at 450 nm was measured using a microplate reader (TECAN Sunrise). For preparation of standard curves the respective synthetic peptides supplied with the ELISA kits were used.
Samples for ELISA were prepared from 8 animals per group (total 32 animals). After removal of the brain, the tissue were flushed shortly with ice cold saline and placed shortly on filter paper. The cerebellum were prepared from each brain and stored separately. The brains were weighed and frozen in liquid nitrogen in 2 ml Cryo-tubes and stored at −80° C. until analysis.
For sequential separation of Aβ the following procedures were used: […]
The test system of a further series is THP-1 monocytes. As to the kind of experiment: TransWell chemotaxis assay. Type of series: cell-based, human. The settings on record: 10 μM inhibitor, dilutions 1:3 and 1:10. Here is the method: The chemotaxis assay was performed using 24 well TransWell plates with a pore size of 5 μm (Corning). Media, containing human MCP-1 variants expressed in HEK293, were used as chemoattractant. To this avail, 600 μl of the culture media of N-terminal human MCP-1 variants was applied directly or in dilutions 1:3, 1:10 and 1:30 in RPMI1640 to the lower chamber of the TransWell plate. Furthermore, undiluted media of HEK293 cells transfected with vector control were applied as negative control to the lower chamber. THP-1 cells were harvested and resuspended in RPMI1640 in a concentration of 1*10^6 cells/100 μl and applied in 100 μl aliquots to the upper chamber. Cells were allowed to migrate towards the chemoattractant for 2 h at 37° C. Subsequently, cells from the upper chamber were discarded and the lower chamber was mixed with 70 mM EDTA in PBS and incubated for 15 min at 37° C. to release cells attached to the membrane. Afterwards, cells migrated to the lower chamber were counted using a cell counter system (Schärfe System). The chemotactic index was calculated by dividing cells migrated to the stimulus from cells migrated to the negative control.

The nature of another series: Plasma half-life. Type of series: in vivo. The settings on record: rat.
Series [3] relates to pGlu-Aβ(3-42) formation in HEK293 and β-TC3 cells. As to the kind of experiment: pGlu-Aβ formation in cell culture (APP or mTRH-Aβ constructs), ELISA of medium. Type of series: cell-based. How it is done: Aβ(x-42) shall here relate to all N-terminal Aβ or truncated Aβ forms.
In the accompanying approach, plasmids encoding variants of human APP were transfected into HEK293 cells (FIG. 24-2). The processing by β- and γ-secretase yields high amounts of Aβ(3-40/42), which can be detected in the culture medium.
For analysis of Aβ in case of the cell culture studies, conditioned medium was diluted using EIA buffer (IBL, Hamburg) as before and diluted samples were subjected to ELISA analysis.

The subject of series [4] is human MCP-1 concentration, HEK293 cells. Kind of series: Expression of human MCP-1 in HEK293 cells, MCP-1 ELISA of supernatant. Type of series: cell-based. Conditions: 10 μM inhibitor. How it is done: For expression of N-terminal variants of human MCP-1, HEK293 cells were cultured in collagen I coated 6-well dishes and grown until 80% confluency, transfected using Lipofectamin2000 (Invitrogen) according to manufacturer's manual and incubated in the transfection solution for 5 hours. Afterwards, cells were allowed to recover in normal growth media over night. The next day, cells were incubated another 24 h in growth media. When application of QC specific inhibitor […] was intended, cells were incubated for 24 h in absence or presence of 10 μM […]. […] Furthermore, an aliquot of cell culture supernatant was stored at −80° C. for quantification of human MCP-1 concentration using human MCP-1-ELISA (Pierce).

SMILES strings stand for the structures.

With `C[C@@H](NC(=O)c1cc(C(=O)N[C@@H](Cc2ccccc2)[C@H](O)CNC2CC2)cc(N(C)S(C)(=O)=O)c1)c1ccccc1` [BACE IV], in the series on LNZ-308 cells, the “total Aβ lowering” value was “only marginal efficacy”. The “Aβ(1-40) and Aβ(1-42)” value with HEK293 cells is recorded as “reduced the N-terminally intact Aβ-peptides”. The “total Aβ40-concentration” value in the series on HEK293 cells (HEK293 cells) is on record as “did not influence the total Aβ40-concentration significantly”.
As for `COc1ccc(NC(=S)NCCCn2ccnc2)cc1OC.Cl` [1-(3-(1H-imidazol-1-yl)propyl)-3-(3,4-dimethoxyphenyl)thiourea hydrochloride], in series [1] (2 days), the “reduction of MCP-1 expression, absolute area, intima” value turned out to be 40%; the “reduction of MCP-1 expression, absolute area, media” value is listed as 41%; the “reduction of adhering monocytes” value was 67%; the “reduction of total adhering cells” value is reported as 45%. In series [1] (14 days), the “MCP-1 expression in media or neointima” value was “no reduction of MCP-1 expression”, the “area of the media” value is given as “reduced”, the “reduction of percentage of lumen stenosis” value was 40% and the “reduction of the area of neointima formation” value worked out at 45%. In addition, the remaining lumen result in series [1] (14 days) was “no statistically significant effect”. Also, the pGlu-Aβ immunostaining result in series [2] (injected prior to Aβ(3-40)) was “significant reduction in pGlu-Aβ immunostaining”. Also, the “pGlu-Aβ after injection of Aβ(1-40)” value in series [2] (rat, in vivo) was “did not result in a clear reduction of pGlu-Aβ”. For the same compound, the “chemotaxis of THP-1 cells towards MCP-1 (WT) supernatant” value in the series with THP-1 monocytes was “significantly lower chemotaxis”. In addition, in “Plasma half-life”, the half-life was less than 1 h. Also, the “pGlu-Aβ concentration in medium” value in series [3] (HEK293 and β-TC3 settings) is “significantly reduced”. Further, the “total Aβ concentration in medium” value in series [3] (indicator of cell viability) is “not reduced”. In addition, the “level of MCP-1 (WT) in supernatant” value in series [4] is reported as “not significantly changed”.
